Experimental data reported in the supplement of paper PMC4862054.

What follows are compounds tested on MDA-MB-436 (assay: normalised viability (% of control), CellTiter-Blue; higher = more viable cells (100 = DMSO, 0 = benzethonium chloride kill control)). Conditions: incubation time: 72 h.
Experimental: (§1)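 DSRT, CellTiter-Blue viability, 72 h incubation. Signal is normalised to DMSO and benzethonium chloride controls. Value is the normalised response at dose 1.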

Compound	normalised viability [%]
Cc1cc(Nc2nc(N[C@@H](C)c3ncc(F)cn3)ncc2Cl)[nH]n1 [AZD1480] (0.1 nM)	114
CNC(=O)c1ccccc1Sc1ccc2c(/C=C/c3ccccn3)n[nH]c2c1 [Axitinib] (1 nM)	98
CC(O)(CS(=O)(=O)c1ccc(F)cc1)C(=O)Nc1ccc(C#N)c(C(F)(F)F)c1 (stereo unspecified) [Bicalutamide] (1 nM)	99.1
CCN(CC)CCCC(C)Nc1ccnc2cc(Cl)ccc12 (stereo unspecified) [Chloroquine] (0.099 nM)	111
CN(Cc1cnc2nc(N)nc(N)c2n1)c1ccc(C(=O)N[C@@H](CCC(=O)O)C(=O)O)cc1 [Methotrexate] (1 nM)	109
COc1c2occc2cc2ccc(=O)oc12 [Methoxsalen] (1 nM)	116
C=CCN(/C=C1/C(=O)O[C@H](COC)[C@@]2(C)C1=C(O)C(=O)C1=C2[C@H](OC(C)=O)C[C@]2(C)C(=O)CC[C@@H]12)CC=C [PX-866] (1 nM)	94.8
CC[C@H](CO)Nc1nc(NCc2ccccc2)c2ncn(C(C)C)c2n1 [Roscovitine] (1 nM)	114

Each compound was assayed on CAL-51 in the same assay as above. Conditions: incubation time: 72 h.
Experimental: as §1

Compound	normalised viability [%]
COc1ccc(S(=O)(=O)Nc2cccnc2Nc2ccc(O)cc2)cc1 [ABT-751] (1 nM)	109
Cc1cc(Nc2nc(N[C@@H](C)c3ncc(F)cn3)ncc2Cl)[nH]n1 [AZD1480] (0.1 nM)	118
CNC(=O)c1ccccc1Sc1ccc2c(/C=C/c3ccccn3)n[nH]c2c1 [Axitinib] (1 nM)	101
CC(O)(CS(=O)(=O)c1ccc(F)cc1)C(=O)Nc1ccc(C#N)c(C(F)(F)F)c1 (stereo unspecified) [Bicalutamide] (1 nM)	110
CCN(CC)CCCC(C)Nc1ccnc2cc(Cl)ccc12 (stereo unspecified) [Chloroquine] (0.099 nM)	90
CN(Cc1cnc2nc(N)nc(N)c2n1)c1ccc(C(=O)N[C@@H](CCC(=O)O)C(=O)O)cc1 [Methotrexate] (1 nM)	106
COc1c2occc2cc2ccc(=O)oc12 [Methoxsalen] (1 nM)	100
C=CCN(/C=C1/C(=O)O[C@H](COC)[C@@]2(C)C1=C(O)C(=O)C1=C2[C@H](OC(C)=O)C[C@]2(C)C(=O)CC[C@@H]12)CC=C [PX-866] (1 nM)	112
CC[C@H](CO)Nc1nc(NCc2ccccc2)c2ncn(C(C)C)c2n1 [Roscovitine] (1 nM)	101

Each compound was assayed on CAL-85-1 in the same assay as above. Conditions: incubation time: 72 h.
Experimental: as §1

Compound	normalised viability [%]
COc1ccc(S(=O)(=O)Nc2cccnc2Nc2ccc(O)cc2)cc1 [ABT-751] (1 nM)	88.4
Cc1cc(Nc2nc(N[C@@H](C)c3ncc(F)cn3)ncc2Cl)[nH]n1 [AZD1480] (0.1 nM)	91.2
CNC(=O)c1ccccc1Sc1ccc2c(/C=C/c3ccccn3)n[nH]c2c1 [Axitinib] (1 nM)	86.8
CC(O)(CS(=O)(=O)c1ccc(F)cc1)C(=O)Nc1ccc(C#N)c(C(F)(F)F)c1 (stereo unspecified) [Bicalutamide] (1 nM)	92.2
CCN(CC)CCCC(C)Nc1ccnc2cc(Cl)ccc12 (stereo unspecified) [Chloroquine] (0.099 nM)	87.6
CN(Cc1cnc2nc(N)nc(N)c2n1)c1ccc(C(=O)N[C@@H](CCC(=O)O)C(=O)O)cc1 [Methotrexate] (1 nM)	95.9
COc1c2occc2cc2ccc(=O)oc12 [Methoxsalen] (1 nM)	92.3
C=CCN(/C=C1/C(=O)O[C@H](COC)[C@@]2(C)C1=C(O)C(=O)C1=C2[C@H](OC(C)=O)C[C@]2(C)C(=O)CC[C@@H]12)CC=C [PX-866] (1 nM)	97
CC[C@H](CO)Nc1nc(NCc2ccccc2)c2ncn(C(C)C)c2n1 [Roscovitine] (1 nM)	82.8

What follows are compounds tested on HCC1143 in the same assay as above. Conditions: incubation time: 72 h.
Experimental: as §1

Compound	normalised viability [%]
COc1ccc(S(=O)(=O)Nc2cccnc2Nc2ccc(O)cc2)cc1 [ABT-751] (1 nM)	95.5
Cc1cc(Nc2nc(N[C@@H](C)c3ncc(F)cn3)ncc2Cl)[nH]n1 [AZD1480] (0.1 nM)	98.1
CNC(=O)c1ccccc1Sc1ccc2c(/C=C/c3ccccn3)n[nH]c2c1 [Axitinib] (1 nM)	101
CC(O)(CS(=O)(=O)c1ccc(F)cc1)C(=O)Nc1ccc(C#N)c(C(F)(F)F)c1 (stereo unspecified) [Bicalutamide] (1 nM)	102
CCN(CC)CCCC(C)Nc1ccnc2cc(Cl)ccc12 (stereo unspecified) [Chloroquine] (0.099 nM)	99.2
CN(Cc1cnc2nc(N)nc(N)c2n1)c1ccc(C(=O)N[C@@H](CCC(=O)O)C(=O)O)cc1 [Methotrexate] (1 nM)	95.6
COc1c2occc2cc2ccc(=O)oc12 [Methoxsalen] (1 nM)	101
C=CCN(/C=C1/C(=O)O[C@H](COC)[C@@]2(C)C1=C(O)C(=O)C1=C2[C@H](OC(C)=O)C[C@]2(C)C(=O)CC[C@@H]12)CC=C [PX-866] (1 nM)	99.8
CC[C@H](CO)Nc1nc(NCc2ccccc2)c2ncn(C(C)C)c2n1 [Roscovitine] (1 nM)	95.5

What follows are compounds tested on MDA-MB-231 in the same assay as above. Conditions: incubation time: 72 h.
Experimental: as §1

Compound	normalised viability [%]
COc1ccc(S(=O)(=O)Nc2cccnc2Nc2ccc(O)cc2)cc1 [ABT-751] (1 nM)	95.8
Cc1cc(Nc2nc(N[C@@H](C)c3ncc(F)cn3)ncc2Cl)[nH]n1 [AZD1480] (0.1 nM)	93.5
CNC(=O)c1ccccc1Sc1ccc2c(/C=C/c3ccccn3)n[nH]c2c1 [Axitinib] (1 nM)	88.4
CC(O)(CS(=O)(=O)c1ccc(F)cc1)C(=O)Nc1ccc(C#N)c(C(F)(F)F)c1 (stereo unspecified) [Bicalutamide] (1 nM)	111
CCN(CC)CCCC(C)Nc1ccnc2cc(Cl)ccc12 (stereo unspecified) [Chloroquine] (0.099 nM)	112
CN(Cc1cnc2nc(N)nc(N)c2n1)c1ccc(C(=O)N[C@@H](CCC(=O)O)C(=O)O)cc1 [Methotrexate] (1 nM)	93.5
COc1c2occc2cc2ccc(=O)oc12 [Methoxsalen] (1 nM)	105
C=CCN(/C=C1/C(=O)O[C@H](COC)[C@@]2(C)C1=C(O)C(=O)C1=C2[C@H](OC(C)=O)C[C@]2(C)C(=O)CC[C@@H]12)CC=C [PX-866] (1 nM)	97.6
CC[C@H](CO)Nc1nc(NCc2ccccc2)c2ncn(C(C)C)c2n1 [Roscovitine] (1 nM)	110

Each compound was assayed on MDA-MB-468 in the same assay as above. Conditions: incubation time: 72 h.
Experimental: as §1

Compound	normalised viability [%]
COc1ccc(S(=O)(=O)Nc2cccnc2Nc2ccc(O)cc2)cc1 [ABT-751] (1 nM)	102
Cc1cc(Nc2nc(N[C@@H](C)c3ncc(F)cn3)ncc2Cl)[nH]n1 [AZD1480] (0.1 nM)	111
CNC(=O)c1ccccc1Sc1ccc2c(/C=C/c3ccccn3)n[nH]c2c1 [Axitinib] (1 nM)	102
CC(O)(CS(=O)(=O)c1ccc(F)cc1)C(=O)Nc1ccc(C#N)c(C(F)(F)F)c1 (stereo unspecified) [Bicalutamide] (1 nM)	110
CCN(CC)CCCC(C)Nc1ccnc2cc(Cl)ccc12 (stereo unspecified) [Chloroquine] (0.099 nM)	108
CN(Cc1cnc2nc(N)nc(N)c2n1)c1ccc(C(=O)N[C@@H](CCC(=O)O)C(=O)O)cc1 [Methotrexate] (1 nM)	93
COc1c2occc2cc2ccc(=O)oc12 [Methoxsalen] (1 nM)	109
C=CCN(/C=C1/C(=O)O[C@H](COC)[C@@]2(C)C1=C(O)C(=O)C1=C2[C@H](OC(C)=O)C[C@]2(C)C(=O)CC[C@@H]12)CC=C [PX-866] (1 nM)	96.6
CC[C@H](CO)Nc1nc(NCc2ccccc2)c2ncn(C(C)C)c2n1 [Roscovitine] (1 nM)	93.7

Each compound was assayed on Hs578T in the same assay as above. Conditions: incubation time: 72 h.
Experimental: as §1

Compound	normalised viability [%]
COc1ccc(S(=O)(=O)Nc2cccnc2Nc2ccc(O)cc2)cc1 [ABT-751] (1 nM)	105
Cc1cc(Nc2nc(N[C@@H](C)c3ncc(F)cn3)ncc2Cl)[nH]n1 [AZD1480] (0.1 nM)	116
CNC(=O)c1ccccc1Sc1ccc2c(/C=C/c3ccccn3)n[nH]c2c1 [Axitinib] (1 nM)	97.6
CC(O)(CS(=O)(=O)c1ccc(F)cc1)C(=O)Nc1ccc(C#N)c(C(F)(F)F)c1 (stereo unspecified) [Bicalutamide] (1 nM)	112
CCN(CC)CCCC(C)Nc1ccnc2cc(Cl)ccc12 (stereo unspecified) [Chloroquine] (0.099 nM)	101
CN(Cc1cnc2nc(N)nc(N)c2n1)c1ccc(C(=O)N[C@@H](CCC(=O)O)C(=O)O)cc1 [Methotrexate] (1 nM)	130
COc1c2occc2cc2ccc(=O)oc12 [Methoxsalen] (1 nM)	103
C=CCN(/C=C1/C(=O)O[C@H](COC)[C@@]2(C)C1=C(O)C(=O)C1=C2[C@H](OC(C)=O)C[C@]2(C)C(=O)CC[C@@H]12)CC=C [PX-866] (1 nM)	98.6
